In this test the target is T1, GABA A α5 (Homo sapiens, UniProt P18507+P31644).
T1 construct: expressed in transfected cells; host or cells: HEK293 cells, transiently transfected; membranes prepared from cell pellets
Briefly: [3H]flumazenil competition binding, human GABA A α5β3γ2 receptors in HEK293 cell membranes. The settings on record: human receptor α5β3γ2 transiently transfected in HEK293; 0.5 nM [3H]flumazenil; 1 hour at 4° C.; means of two determinations; read-out: hKi GABA A α5. How it is done: The affinity of compounds at GABA A receptor subtypes was measured by competition for [3H]flumazenil (85 Ci/mmol; Roche) binding to HEK293 cells expressing rat (stably transfected) or human (transiently transfected) receptors of composition α1β3γ2, α2β3γ2, α3β3γ2 and α5β3γ2.
Cell pellets were suspended in Krebs-tris buffer (4.8 mM KCl, 1.2 mM CaCl2, 1.2 mM MgCl2, 120 mM NaCl, 15 mM Tris; pH 7.5; binding assay buffer), homogenized by polytron for ca. 20 sec on ice and centrifuged for 60 min at 4° C. (50000 g; Sorvall, rotor: SM24=20000 rpm). The cell pellets were re-suspended in Krebs-tris buffer and homogenized by polytron for ca. 15 sec on ice. Protein was measured (Bradford method, Bio-Rad) and aliquots of 1 mL were prepared and stored at −80° C.
Assays were incubated to equilibrium for 1 hour at 4° C. and harvested onto GF/C uni-filters (Packard) by filtration using a Packard harvester and washing with ice-cold wash buffer (50 mM Tris; pH 7.5). After drying, filter-retained radioactivity was detected by liquid scintillation counting. Ki values were calculated using Excel-Fit (Microsoft) and are the means of two determinations.

On to `CCCCc1noc(C)c1COc1cc(C(=O)NN2CCCCC2)[nH]n1` [Example 41, 5-(3-Butyl-5-methyl-isoxazol-4-ylmethoxy)-2H-pyrazole-3-carboxylic acid piperidin-1-ylamide], for which the Ki was found to be 27.2 nM.

Regarding `Cc1onc(-c2ccc(F)cc2)c1COc1cc(C(=O)NCC(C)(C)O)n(C)n1` [Example 66, 5-[3-(4-Fluoro-phenyl)-5-methyl-isoxazol-4-ylmethoxy]-2-methyl-2H-pyrazole-3-carboxylic acid (2-hydroxy-2-methyl-propyl)-amide], the Ki is 6.5 nM.

As to `Cc1onc(-c2ccc(F)cc2)c1COc1cc(C(=O)N[C@@H](C)CO)n(C)n1` (single isomer, unassigned) [Example 75, (+)-5-[3-(4-Fluoro-phenyl)-5-methyl-isoxazol-4-ylmethoxy]-2-methyl-2H-pyrazole-3-carboxylic acid ((R)-2-hydroxy-1-methyl-ethyl)-amide or 5-[3-(4-fluoro-phenyl)-5-methyl-isoxazol-4-ylmethoxy]-2-methyl-2H-pyrazole-3-carboxylic acid ((S)-2-hydroxy-1-methyl-ethyl)-amide or enantiomer], the Ki is 5.7 nM.

As for `Cc1onc(-c2ccc(F)cc2)c1COc1cc(C(=O)NN2CCCC2)[nH]n1` [Example 10, 5-[3-(4-Fluoro-phenyl)-5-methyl-isoxazol-4-ylmethoxy]-2H-pyrazole-3-carboxylic acid pyrrolidin-1-ylamide], the Ki worked out at 3.8 nM.

Take `Cc1onc(-c2ccc(F)cn2)c1CNc1cc(C(=O)NCC2CC2)n(C)n1` [Example 166, N-(Cyclopropylmethyl)-3-((3-(5-fluoropyridin-2-yl)-5-methylisoxazol-4-yl)methylamino)-1-methyl-1H-pyrazole-5-carboxamide]: the Ki is 55.6 nM.

In the case of `Cn1nc(OCc2c(-c3ccc(F)cc3)noc2CO)cc1C(=O)NC1(C)COC1` (racemic) [Example 98, Rac-5-[3-(4-fluoro-phenyl)-5-hydroxymethyl-isoxazol-4-ylmethoxy]-2-methyl-2H-pyrazole-3-carboxylic acid (3-methyl-oxetan-3-yl)-amide], the Ki is 4.9 nM.

As to `Cc1onc(-c2ccc(F)cc2)c1CNc1cc(C(=O)NC(C)CO)n(C)n1` (stereo not drawn) [Example 150, 5-{[3-(4-Fluoro-phenyl)-5-methyl-isoxazol-4-ylmethyl]-amino}-2-methyl-2H-pyrazole-3-carboxylic acid (2-hydroxy-1-methyl-ethyl)-amide], the Ki was 26.2 nM.

Turning to `Cc1onc(-c2ccc(F)cc2)c1CNc1cc(C(=O)NCC(F)(F)F)n(C)n1` [Example 146, 5-{[3-(4-Fluoro-phenyl)-5-methyl-isoxazol-4-ylmethyl]-amino}-2-methyl-2H-pyrazole-3-carboxylic acid (2,2,2-trifluoro-ethyl)-amide], the Ki is 15.2 nM.

Turning to `Cc1onc(-c2ccc(F)cc2)c1COc1cc(C(=O)NCC(O)C(F)(F)F)n(C)n1` (single isomer, unassigned; (-)) [Example 68, (−)-5-[3-(4-Fluoro-phenyl)-5-methyl-isoxazol-4-ylmethoxy]-2-methyl-2H-pyrazole-3-carboxylic acid ((R or S)-3,3,3-trifluoro-2-hydroxy-propyl)-amide or enantiomer], the Ki amounted to 5.3 nM.

Take `Cc1onc(-c2ccc(F)cn2)c1CNc1cc(C(=O)N2CC3(COC3)C2)n(C)n1` [Example 168, (3-((3-(5-Fluoropyridin-2-yl)-5-methylisoxazol-4-yl)methylamino)-1-methyl-1H-pyrazol-5-yl)(2-oxa-6-azaspiro[3.3]heptan-6-yl)methanone]: the Ki was 77.7 nM.

As for `CCCCc1noc(C)c1COc1cc(C(=O)NC2CCOC(C)(C)C2)[nH]n1` (racemic) [Example 37, Rac-5-(3-Butyl-5-methyl-isoxazol-4-ylmethoxy)-2H-pyrazole-3-carboxylic acid (2,2-dimethyl-tetrahydro-pyran-4-yl)-amide], the Ki turned out to be 22 nM.

As for `CCCCc1noc(C)c1COc1cc(C(=O)NC(C)CO)n(C)n1` (racemic) [Example 87, Rac-5-(3-Butyl-5-methyl-isoxazol-4-ylmethoxy)-2-methyl-2H-pyrazole-3-carboxylic acid (2-hydroxy-1-methyl-ethyl)-amide], the Ki came out at 44.7 nM.

With `Cc1onc(-c2ccccc2)c1COc1cc(C(=O)NN(C)C)n(C)n1` [Example 47, 2-Methyl-5-(5-methyl-3-phenyl-isoxazol-4-ylmethoxy)-2H-pyrazole-3-carboxylic acid N′,N′-dimethyl-hydrazide], the Ki worked out at 50.3 nM.

Turning to `CCCCc1noc(C)c1COc1cc(C(=O)NC2CCOCC2)[nH]n1` [Example 26, 5-(3-Butyl-5-methyl-isoxazol-4-ylmethoxy)-2H-pyrazole-3-carboxylic acid (tetrahydropyran-4-yl)-amide], the Ki came to 2.3 nM.

With `CC(C)NC(=O)c1cc(OCc2c(-c3ccc(F)cc3)noc2CO)nn1C` [Example 92, 5-[3-(4-Fluoro-phenyl)-5-hydroxymethyl-isoxazol-4-ylmethoxy]-2-methyl-2H-pyrazole-3-carboxylic acid isopropylamide], the Ki came out at 9.5 nM.

As for `CCCCc1noc(C)c1COc1cc(C(=O)NN2CCOCC2)[nH]n1` [Example 39, 5-(3-Butyl-5-methyl-isoxazol-4-ylmethoxy)-2H-pyrazole-3-carboxylic acid morpholin-4-ylamide], the Ki was 5.8 nM.

Regarding `Cc1onc(-c2ccc(F)cn2)c1CNc1cc(C(=O)NC2(C)COC2)n(C)n1` [Example 167, 3-((3-(5-Fluoropyridin-2-yl)-5-methylisoxazol-4-yl)methylamino)-1-methyl-N-(3-methyloxetan-3-yl)-1H-pyrazole-5-carboxamide], the Ki was 16.2 nM.

With `Cc1onc(-c2ccc(F)cc2)c1COc1cc(C(=O)NCC(O)C(F)(F)F)n(C)n1` (single isomer, unassigned; (+)) [Example 67, (+)-5-[3-(4-Fluoro-phenyl)-5-methyl-isoxazol-4-ylmethoxy]-2-methyl-2H-pyrazole-3-carboxylic acid ((S or R)-3,3,3-trifluoro-2-hydroxy-propyl)-amide or enantiomer], the Ki was 2.4 nM.

As for `Cc1onc(-c2ccccn2)c1COc1cc(C(=O)NC(C)CO)n(C)n1` (stereo in doubt) [Example 80, 2-Methyl-5-(5-methyl-3-pyridin-2-yl-isoxazol-4-ylmethoxy)-2H-pyrazole-3-carboxylic acid ((S)-2-hydroxy-1-methyl-ethyl)-amide], the Ki stood at 23.5 nM.

As to `Cc1onc(-c2ccc(F)cn2)c1COc1cc(C(=O)NN2CCCC2)[nH]n1` [Example 24, 5-[3-(5-Fluoro-pyridin-2-yl)-5-methyl-isoxazol-4-ylmethoxy]-2H-pyrazole-3-carboxylic acid pyrrolidin-1-ylamide], the Ki amounted to 3.5 nM.

In the case of `Cn1nc(OCc2c(-c3ccc(Cl)cc3)noc2CO)cc1C(=O)N1CC2(COC2)C1` [Example 109, {5-[3-(4-Chloro-phenyl)-5-hydroxymethyl-isoxazol-4-ylmethoxy]-2-methyl-2H-pyrazol-3-yl}-(2-oxa-6-aza-spiro[3.3]hept-6-yl)-methanone], the Ki was determined as 9 nM.

Regarding `Cn1nc(OCc2c(-c3ccc(Cl)cc3)noc2CO)cc1C(=O)NC1CC1` [Example 105, 5-[3-(4-Chloro-phenyl)-5-hydroxymethyl-isoxazol-4-ylmethoxy]-2-methyl-2H-pyrazole-3-carboxylic acid cyclopropylamide], the Ki is 5.4 nM.

As for `Cc1onc(-c2ccc(F)cc2)c1/C=C/c1cc(C(=O)N2CCOCC2)[nH]n1` [Example 132, (5-{(E)-2-[3-(4-Fluoro-phenyl)-5-methyl-isoxazol-4-yl]vinyl}-2H-pyrazol-3-yl)-morpholin-4-yl-methanone], the Ki worked out at 50.6 nM.

On to `CC(NC(=O)c1cc(OCc2c(-c3ccc(Cl)cc3)noc2CO)nn1C)C(F)(F)F` (stereo in doubt) [Example 106, 5-[3-(4-Chloro-phenyl)-5-hydroxymethyl-isoxazol-4-ylmethoxy]-2-methyl-2H-pyrazole-3-carboxylic acid ((S)-2,2,2-trifluoro-1-methyl-ethyl)-amide], for which the Ki was determined as 8.1 nM.

With `Cc1onc(-c2ccc(F)cc2)c1CNc1cc(C(=O)NC(C)CO)[nH]n1` (stereo not drawn) [Example 157, 5-{[3-(4-Fluoro-phenyl)-5-methyl-isoxazol-4-ylmethyl]-amino}-2H-pyrazole-3-carboxylic acid (2-hydroxy-1-methyl-ethyl)-amide], the Ki worked out at 51 nM.

Regarding `Cn1nc(OCc2c(-c3ccc(Cl)cc3)noc2CO)cc1C(=O)NCC(F)(F)F` [Example 103, 5-[3-(4-Chloro-phenyl)-5-hydroxymethyl-isoxazol-4-ylmethoxy]-2-methyl-2H-pyrazole-3-carboxylic acid (2,2,2-trifluoro-ethyl)-amide], the Ki is 5.7 nM.

As for `CCC(CO)NC(=O)c1cc(OCc2c(-c3ccc(F)cc3)noc2C)nn1C` (single isomer, unassigned; (+)) [Example 70, (+)-5-[3-(4-Fluoro-phenyl)-5-methyl-isoxazol-4-ylmethoxy]-2-methyl-2H-pyrazole-3-carboxylic acid ((S or R)-1-hydroxymethyl-propyl)-amide], the Ki was 16.7 nM.

These data come from patent US8163728B2, “Pyrazoles” (Hoffmann-La Roche Inc., priority 2009, dated 2012).
